Source: publication PMC5118774 (Frontiers in Pharmacology, 2016)
“Also recorded” adds a separate entry of the source.

Columns and labels:
Format in all cases: in vivo, C57BL/6J mice
[1] = test system: mice exposed to unpredictable chronic mild stress (UCMS); test: Open field test after UCMS
[2] = test system: mice exposed to unpredictable chronic mild stress (UCMS); test: Cookie test after UCMS
From the text: Mice underwent between 6 and 8 weeks of UCMS (see Supplementary Table S1 for example UCMS schedule). Animals were exposed to 2–3 mild stressors each day throughout the light/dark cycle, including wet bedding, brief restraint, forced bath, no bedding, reduced space, and predator odor over a period of several weeks (see details in Supplementary Material) ([Edgar et al., 2011]; [Lin and Sibille, 2015]). Female mice were housed 5 per cage, and male mice were housed 4 per cage in Optimice cages (Animal Care Systems Inc, Centennial, CO, USA). In experiment 3.4, UCMS was augmented with single-cage isolation housing in male mice beginning at the fourth week of UCMS until sacrifice. A timeline of experimental procedures can be found in Figure 2A (including timeline of the sections “ Drug Treatment” and “Behavioral Testing”).
At the start of the third week of UCMS and continuing for between 28 and 42 days (including time for behavioral tests, see “Behavioral Testing”) until sacrifice, mice received daily i.p injections of vehicle (85% ddH2O, 14% propylene glycol, 1% Tween 80) or 30 mg/kg SH-053-2’F-R-CH3 (α5-PAM; synthesized in the laboratory of Dr. James M. Cook) in a volume of […]. All animals received a single daily injection (chronic α5-PAM treated mice received SH-053-2’F-R-CH3, acute α5-PAM and vehicle treated animals received vehicle injections) between 8:00AM and 9:00AM until the start of behavioral testing. After 3 weeks of treatment, all mice began receiving a second injection 30 min prior to behavioral testing. All animals received a second injection of either vehicle (for chronic α5-PAM treated animals and UCMS-vehicle treated animals) or α5-PAM acutely (α5-PAM acute animals). All injections were performed using ultra-fine insulin syringes (31 gauge, 6 mm; Becton, Dickinson and Company, Franklin Lakes, NJ, USA).
After 5 weeks of UCMS, including 3 weeks of drug treatment, animals were assessed in a battery of behavioral tests (each test separated by 48 h, UCMS continued throughout behavioral testing for a period of 1–3 weeks). These tests included: Elevated plus maze: under red light, animals were placed on a plus maze with two open and two closed arms (30 cm × 5 cm). Number of entries into all arms as well as the time spent in the open arms was recorded for 10 min. Open field test: The open field test was conducted in a 43 cm ×43 cm arena under bright (800 lux) light. Using AnyMaze software (Stoelting, Wood Dale, IL, USA), the center 50% of the arena was identified and animals were tracked for 10 min. Novelty suppressed feeding test: Mice were food deprived for 24 h the day before testing. Testing occurred in brightly lit (∼1000 lux) open field arenas covered in bedding. A normal food pellet was placed into the brightly lit center and the latency for an animal to approach and bite the pellet was recorded over a 12 min session. Immediately following the session, animals were placed into their home cage and allowed to eat a weighed food pellet to assess hunger drive. Cookie test: The cookie test apparatus contains three identically sized chambers (40 cm × 20 cm × 20 cm) separated by two offset dividers. The outer walls of each chamber were clear and the only difference between each was the color of the divider, with one divider shaded white and the other black. One week prior to experimentation, mice were habituated in their home cage to a piece (2 ± 1 g) of Keebler Fudge Stripe Cookie (Kellogg’s Company, Battle Creek, MI, USA). On the first and second day of testing, a piece of cookie (2 ± 1 g) was placed into the chamber separated by the black divider. Mice were then placed into the opposing chamber separated by the white divider and monitored for 10 min. The latency for each mouse to bite the cookie was recorded. […]

[3] = test system: mice exposed to unpredictable chronic mild stress (UCMS); test: Composite emotionality Z-score across EPM, OFT, NSF, cookie test
Method: To assess the consistency of effects of stress and drug treatment on overall stress-induced behavior, we calculated behavioral z-scores using the formula below. These normalized scores integrate measures of behavioral dimensions (e.g., emotionality) over time and tests, yielding a combined measure of the UCMS-induced behavioral syndrome ([Guilloux et al., 2011]).
Briefly, for each behavioral measure a Z-score was calculated for an individual animal indicating how many standard deviations (σ) a given observation (X) is from the mean of the control group (μ). These scores were averaged within test such that each test had the same weight, and then averaged across all four tests (EPM, OFT, NSF, cookie test) to obtain a composite emotionality Z-score for each mouse. In short, random or opposite behavior across tests yield null z-scores, whereas significant and/or trend-like behaviors across tests and consistently in the same directions yield high z-scores.

Gabra5 = Gabra5 transcript expression by qPCR in prelimbic cortex and hippocampus
Method: Twenty-four hours after the final behavioral test, mice were injected with either an acute dose of α5-PAM or vehicle 30 min prior to rapid perfusion (2 ml 4%PFA). Brains were rapidly dissected and flash frozen on dry ice. 160 μm thick coronal sections were obtained using a cryostat. The prelimbic cortex and dorsal hippocampus were dissected with a 1 mm diameter micropunch and tissue samples were then frozen at -80°C. Total RNA was extracted with an RNAeasy FFPE kit (Qiagen, Germantown, MD, USA) and tested for purity on a NanoDrop Spectrophotometer (260/280 ≥ 1.9). RNA concentration and integrity (RIN > 7) were then assessed using the Agilent RNA6000 Pico-Kit and Agilent 2100 Bioanalyzer (Agilent Technologies, Santa Clara, CA, USA).
Approximately 90 ng of total RNA was used to generate cDNA via the qScript^TM cDNA Supermix synthesis kit (Quanta Biosciences, Gaithersburg, MD, USA). Real-time quantitative polymerase chain (qPCR) reactions were carried out using SYBR green fluorescence signal (Invitrogen, Carlsbad, CA, USA) and an Opticon Monitor DNA Engine (Bio-Rad, Berkeley, CA, USA). Gene of interest was the α5-subunit of the GABAA receptor (Gabra5). Samples were run in triplicate and ΔCt values were calculated by comparing the Ct values of Gabra5 to the geometric mean of two reference genes, β-Actin and glyceraldehyde 3-phosphate dehydrogenase (Gapdh). Arbitrary signal intensity was calculated as 2^-ΔCt∗10,000.

[4] = female UCMS mice, chronic treatment, vs UCMS-vehicle, second cohort (Figure 3)
[5] = male UCMS mice, 37.5 mg/kg acute or chronic (Figure 4B), 37.5 mg/kg
[6] = male mice, UCMS plus single housing, chronic treatment (Figure 4A)
[7] = female UCMS mice, acute 30 mg/kg i.p., first cohort (Figure 2)
[8] = female UCMS mice, acute treatment, vs UCMS-vehicle, second cohort (Figure 3)
[9] = female UCMS mice, chronic 30 mg/kg i.p., first cohort (Figure 2)
[10] = male UCMS mice, acute or chronic 30 mg/kg i.p., first cohort (Figure 2)

C#Cc1ccc2c(c1)C(c1ccccc1F)=N[C@H](C)c1c(C(=O)OCC)ncn1-2 [α5-PAM]
OFT percentage of total distance traveled in the center [1, 4]: increases; also recorded: higher percentage of their total distance traveled | OFT behavior ([1]; female and male UCMS mice, acute or chronic 30 mg/kg i.p., first cohort (Figure 2)): did not detect any significant main effects; also recorded: No effect | OFT, stress-induced behavior [1, 5]: No change; also recorded: failed to reduce | OFT, UCMS-induced behavioral phenotype [1, 6]: did not alter; also recorded: No significant effect | cookie test latency to bite the cookie [2, 7]: a trend in the same direction | cookie test latency to bite the cookie [2, 8]: reduces the latency to bite; also recorded: significantly reduced the latency to bite | cookie test latency to bite the cookie [2, 9]: reduced the latency to bite; also recorded: significant decrease | cookie test latency to bite the cookie [2, 4]: reduces the latency to bite; also recorded: significantly reduced the latency to bite | cookie test, stress-induced behavior [2, 5]: No change; also recorded: failed to reduce | cookie test latency to bite the cookie [2, 10]: No significant effect; also recorded: No significant difference | cookie test, UCMS-induced behavioral phenotype [2, 6]: did not alter; also recorded: No significant effect | Z-emotionality score [3, 7]: Significant anti-stress effect | Z-emotionality score compared to non-stressed vehicle group ([3]; female UCMS mice, acute and chronic treatment groups, second cohort (Figure 3)): not statistically different | Z-emotionality score [3, 8]: normalized; also recorded: significantly decreased | Z-emotionality score [3, 9]: Significant anti-stress effect | Z-emotionality score [3, 4]: normalized; also recorded: significantly decreased | Composite emotionality Z-score ([3]; male UCMS mice, 37.5 mg/kg acute or chronic (Figure 4D), 37.5 mg/kg): No effect; also recorded: lack of anti-stress activity | Z-emotionality score [3, 10]: no effect | Summary emotionality Z-score ([3]; male mice, UCMS plus single housing, chronic treatment (Figure 4C)): lack of effect; also recorded: does not remediate | Gabra5 (α5) transcript expression, prelimbic cortex (Gabra5; female UCMS mice, acute treatment): significantly increased; also recorded: increases | Gabra5 (α5-subunit) transcript expression, hippocampus (Gabra5; female UCMS mice, chronic treatment): increases | Gabra5 gene expression (Gabra5; male UCMS mice, acute or chronic treatment, prelimbic cortex and hippocampus): No change | Gabra5 (α5) transcript expression, prelimbic cortex (Gabra5; male or female UCMS mice, chronic treatment): No effect
